Reference: PubChem BioAssay AID1919004 (Molecular Pharmacology Branch, DTP, NCI, 2023)

Tested on: 883617-216-R-J1-PDC complex spheroids, growth, % test/control
Test: Anticancer human tumor 883617-216-R-J1-PDC patient-derived bladder carcinoma cell line growth inhibition [AhR]
Conditions: for IC50: curve of first compound; for viability, T/C: stronger effect = lower value
Excerpt: Multicellular complex tumor spheroid response to aryl hydrocarbon receptor antagonists in combination with a variety of drugs and investigational agents in selected tumor cell lines
The current study was undertaken to assess response to aryl hydrocarbon receptor antagonists in combination with standard-of-care drugs and investigational agents in solid tumor complex spheroid models. Complex spheroids include a stromal component modeled by human endothelial cells (HUVEC) and fibroblasts modeled by human mesenchymal stem cells (MSCs). The concentration ranges selected for each drug and investigational agent were based upon clinically achievable concentrations if the clinical Cmax of the agent was known.
Compounds. The drugs and investigational agents: BAY 2416964 (NSC825713), GNF351 (NSC835774), CH-223191 (NSC835775), CPI-455 (NSC825282), aza-TdCyd (NSC777586), decitabine (NSC127716), belinostat (NSC758774), entinostat (NSC756642), pevonedistat (NSC761192), tazemetostat (NSC777109), talazoparib (NSC765396), olaparib (NSC753686), selinexor (NSC780203), nedisertib (M3814, NSC802822), bortezomib (NSC756655), venetoclax (NSC766270), doxorubicin (NSC123127), elimusertib (BAY189344, NSC800525), ceralasertib (AZD6738, NSC777638), TAK-243 (NSC785004), alisertib (NSC759677), etoposide (NSC141540), topotecan (NSC609699), eribulin (NSC707389), gemcitabine (NSC613327), carboplatin (NSC241240), cisplatin (NSC119875), and SN-38 (NSC673596) were obtained from the National Cancer Institute (NCI) Developmental Therapeutics Program Chemical Repository (32). The FDA-approved anticancer drug set is available from the Developmental Therapeutics Program at https://dtp.cancer.gov/organization/dscb/obtaining/available plates.htm. […] The stock solutions were prepared in dimethyl sulfoxide (DMSO, Sigma-Aldrich, St. Louis, MO, cat. D2650), except for the platinum compounds which were prepared in saline (Quality Biological, Gaithersburg, MD, cat. 114-055-101), at 800-fold the tested concentration and stored at -70 degrees C prior to their use. All drugs and investigational agents were tested over a range starting from a high concentration at or near the clinical Cmax and decreasing in half-log increments. If the clinical Cmax for an agent had not been determined, the highest concentration tested was 10 microM (Table 1).
Cell Culture. All cells were maintained in an incubator at 37 degrees C and 5% CO2 with 95% humidity. The PDC lines were cultured according to standard operating procedures established by the NCI PDMR (https://pdmr.cancer.gov). Briefly, all PDCs were thawed and cultured in Matrigel-coated flasks prepared with a working solution of 1X Ham's F-12 nutrient mix, without supplementation (Invitrogen, Waltham, MA, cat. 11765054), 100 U/mL penicillin-streptomycin (Invitrogen, cat. 15140122), and 2.5% Matrigel (Corning Inc., Corning, NY, cat. 354248) for the first three passages. All PDCs were cultured in complete DMEM/F-12 media containing advanced DMEM/F-12 (Invitrogen, cat. 12634028), 4.9% defined fetal bovine serum, heat inactivated (HyClone Laboratories Inc., Logan, UT, cat. SH30070.03HI), 389 ng/mL hydrocortisone (Sigma-Aldrich, cat. H4001), 9.7 ng/mL human EGF recombinant protein (Invitrogen, cat. PHG0313), 23.4 microg/mL adenine (Sigma-Aldrich, cat. A2786), 97.3 U/mL penicillin-streptomycin (Invitrogen, cat. 15140122), 1.9 mM L-glutamine (Invitrogen, cat. 25030081), and 9.7 microM Y-27632 dihydrochloride (Tocris Bioscience, Bristol, United Kingdom, cat. 1254). The PDCs were cultured in complete DMEM/F12 media without 10 microM Y-27632 dihydrochloride for at least two passages prior to the screen. The established cell lines NCI-H1341 and […] were cultured in DMEM/F-12, HEPES (Invitrogen, cat. 11330032), 5% defined fetal bovine serum (HyClone Laboratories Inc., cat. SH30070.03), ITS premix universal culture supplement [insulin (5 microg/mL), transferrin (5 microg/mL), and selenious acid (5 ng/mL)] […]

[1] = second compound 0.1 µM, first compound 0.0316 µM
[2] = second compound 0.1 µM, first compound 0.1 µM
[3] = second compound 0.1 µM, first compound 0.316 µM
[4] = second compound 0.1 µM, first compound 1 µM
[5] = second compound 0.1 µM, first compound 3.16 µM
[6] = second compound 0.1 µM, first compound 10 µM
[7] = second compound 0.316 µM, first compound 0.0316 µM
[8] = second compound 0.316 µM, first compound 0.1 µM
[9] = second compound 0.316 µM, first compound 0.316 µM
[10] = second compound 0.316 µM, first compound 1 µM
[11] = second compound 0.316 µM, first compound 3.16 µM
[12] = second compound 0.316 µM, first compound 10 µM
[13] = second compound 1 µM, first compound 0.0316 µM
[14] = second compound 1 µM, first compound 0.1 µM
[15] = second compound 1 µM, first compound 0.316 µM
[16] = second compound 1 µM, first compound 1 µM
[17] = second compound 1 µM, first compound 3.16 µM
[18] = second compound 1 µM, first compound 10 µM
[19] = second compound 3.16 µM, first compound 0.0316 µM
[20] = second compound 3.16 µM, first compound 0.1 µM
[21] = second compound 3.16 µM, first compound 0.316 µM
[22] = second compound 3.16 µM, first compound 1 µM
[23] = second compound 3.16 µM, first compound 3.16 µM
[24] = second compound 3.16 µM, first compound 10 µM
[25] = second compound 10 µM, first compound 0.0316 µM
[26] = second compound 10 µM, first compound 0.1 µM
[27] = second compound 10 µM, first compound 0.316 µM
[28] = second compound 10 µM, first compound 1 µM
[29] = second compound 10 µM, first compound 3.16 µM
[30] = second compound 10 µM, first compound 10 µM
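Note: exposure lasted 7 days after dosing on day 3 of spheroid growth.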

| IC50 (second compound 0.1 µM) [nM] | IC50 (second compound 0.316 µM) [nM] | IC50 (second compound 1 µM) [nM] | IC50 (second compound 3.16 µM) [nM] | IC50 (second compound 10 µM) [nM] | SMILES | viability, T/C [1] [%] | viability, T/C [2] [%] | viability, T/C [3] [%] | viability, T/C [4] [%] | viability, T/C [5] [%] | viability, T/C [6] [%] | viability, T/C [7] [%] | viability, T/C [8] [%] | viability, T/C [9] [%] | viability, T/C [10] [%] | viability, T/C [11] [%] | viability, T/C [12] [%] | viability, T/C [13] [%] | viability, T/C [14] [%] | viability, T/C [15] [%] | other results |
| --- | --- | --- | --- | --- | --- | --- | --- | --- | --- | --- | --- | --- | --- | --- | --- | --- | --- | --- | --- | --- | --- |
| < 31.6 | < 31.6 | < 31.6 | < 31.6 | < 31.6 | Nc1ccn(C2OC(CO)C(O)C2(F)F)c(=O)n1 (stereo not given) + Cc1ccccc1N=Nc1ccc(NC(=O)c2ccnn2C)c(C)c1 | 27.8 | 26.8 | 35.4 | 32.4 | 30.2 | 32.2 | 25.1 | 26.1 | 32.5 | 33.5 | 35.2 | 37.5 | 28.6 | 22.8 | 31.5 | viability, T/C [16]: 36%; viability, T/C [17]: 34.2%; viability, T/C [18]: 31.7%; viability, T/C [19]: 26.1%; viability, T/C [20]: 22.3%; viability, T/C [21]: 31%; viability, T/C [22]: 31.3%; viability, T/C [23]: 37.3%; viability, T/C [24]: 32.4%; viability, T/C [25]: 36.3%; viability, T/C [26]: 27.8%; viability, T/C [27]: 29.4%; viability, T/C [28]: 34.5%; viability, T/C [29]: 31.1%; viability, T/C [30]: 32.4% |
| 2750 | 2990 | 2790 | 2260 | < 31.6 | NS(=O)(=O)OCC1CC(n2ccc3c(NC4CCc5ccccc54)ncnc32)CC1O (stereo not given) + Cc1cncc(-c2nc(NCCc3c[nH]c4ccccc34)c3ncn(C(C)C)c3n2)c1 | 118 | 165 | 209 | 131 | 43.6 | 29.1 | 128 | 164 | 225 | 120 | 44.5 | 25.9 | 141 | 167 | 212 | viability, T/C [16]: 130%; viability, T/C [17]: 48%; viability, T/C [18]: 30.1%; viability, T/C [19]: 141%; viability, T/C [20]: 179%; viability, T/C [21]: 204%; viability, T/C [22]: 112%; viability, T/C [23]: 33.2%; viability, T/C [24]: 15.4%; viability, T/C [25]: 48.1%; viability, T/C [26]: 50.6%; viability, T/C [27]: 28.6%; viability, T/C [28]: 6.98%; viability, T/C [29]: 4.81%; viability, T/C [30]: 2.51% |
| > 10000 | > 10000 | > 10000 | > 10000 | 1190 | CC1COCCN1c1cc(C2(S(C)(=N)=O)CC2)nc(-c2ccnc3[nH]ccc23)n1 (stereo not given) + Cc1cncc(-c2nc(NCCc3c[nH]c4ccccc34)c3ncn(C(C)C)c3n2)c1 | 88.1 | 90.5 | 84.3 | 84.8 | 78.3 | 58.2 | 92.4 | 95.6 | 92.3 | 82.1 | 69.3 | 54.3 | 95.8 | 100 | 100 | viability, T/C [16]: 94.9%; viability, T/C [17]: 81.7%; viability, T/C [18]: 62.9%; viability, T/C [19]: 103%; viability, T/C [20]: 113%; viability, T/C [21]: 100%; viability, T/C [22]: 94.2%; viability, T/C [23]: 85%; viability, T/C [24]: 54.8%; viability, T/C [25]: 57%; viability, T/C [26]: 50.1%; viability, T/C [27]: 59.6%; viability, T/C [28]: 50.6%; viability, T/C [29]: 42.7%; viability, T/C [30]: 29.8% |
| > 10000 | > 10000 | > 10000 | > 10000 | > 10000 | Nc1ccn(C2OC(CO)C(O)C2(F)F)c(=O)n1 (stereo not given) + CC(CO)NC(=O)c1cc(-c2ccc(Cl)cc2)nn(-c2cnn(C)c2)c1=O | 82.9 | 91.6 | 95.4 | 88.3 | 58.7 | 85.3 | 82.2 | 99 | 97.8 | 84.8 | 85.8 | 86.3 | 96.8 | 76.4 | 113 | viability, T/C [16]: 77.7%; viability, T/C [17]: 75.7%; viability, T/C [18]: 72.1%; viability, T/C [19]: 81%; viability, T/C [20]: 91.8%; viability, T/C [21]: 108%; viability, T/C [22]: 52.7%; viability, T/C [23]: 63.4%; viability, T/C [24]: 63.5%; viability, T/C [25]: 63.2%; viability, T/C [26]: 124%; viability, T/C [27]: 87%; viability, T/C [28]: 72.7%; viability, T/C [29]: 78.2%; viability, T/C [30]: 76.6% |
